Assay results taken from patent US20230406843A1, “Progranulin Modulators and Methods of Using the Same” (ARKUDA THERAPEUTICS, priority 2020, published 2023).

These molecules were tested on progranulin (assay: Progranulin induction cellular assay (ELISA of secreted mouse PGRN)). Details: Mus musculus, BV-2, read-out: EC50 μM.
Type: cell-based
Summary of the method: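 Mouse primary microglia, primary cortical neurons and BV-2 cells are used. BV-2 cells are plated in 96-well format the day before, with a 1 h attachment and 16 h incubation. Progranulin secreted into the medium is quantified by ELISA.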

| Compound | EC50 |
| --- | --- |
| C=CCO[C@H]1CO[C@@H](C(=O)N2CCc3ccccc3[C@@H]2c2ccc(F)cc2)C[C@@H]1N [Compound 5476, ((2R,4S,5R)-5-(allyloxy)-4-aminotetrahydro-2H-pyran-2-yl)((S)-1-(4-fluorophenyl)-3,4-dihydroisoquinolin-2(1H)-yl)methanone] | 0.001 µM |
| CC(=O)N[C@H]1CO[C@@H](C(=O)N2CCc3ccccc3[C@@H]2c2ccc(F)cc2)C[C@@H]1N [Compound 5512, N-((3R,4S,6R)-4-amino-6-((S)-1-(4-fluorophenyl)-1,2,3,4-tetrahydroisoquinoline-2-carbonyl)tetrahydro-2H-pyran-3-yl)acetamide] | 0.005 µM |

Same assay, conditions: progranulin induction assay; mouse pMG, primary cortical neurons and BV-2 cell lines named, cell type not given; ELISA-based readout; read-out: EC50

| Compound | EC50 |
| --- | --- |
| CN(C)[C@H]1C[C@H](C(=O)N2CCc3ccccc3[C@@H]2c2ccc(F)cc2)OC[C@H]1O [Compound 5447, ((2R,4S,5S)-4-(dimethylamino)-5-hydroxytetrahydro-2H-pyran-2-yl)((S)-1-(4-fluorophenyl)-3,4-dihydroisoquinolin-2(1H)-yl)methanone] | 0.659 µM |
| O=C([C@H]1C[C@@H]2NCCO[C@@H]2CO1)N1CCc2ccccc2[C@@H]1c1ccc(F)cc1 [Compound 5448, ((S)-1-(4-fluorophenyl)-3,4-dihydroisoquinolin-2(1H)-yl)((4aS,7R,8aS)-octahydropyrano[3,4-b][1,4]oxazin-7-yl)methanone] | 0.044 µM |
| O=C([C@H]1C[C@@H]2NCCN[C@H]2CO1)N1CCc2ccccc2[C@@H]1c1ccc(F)cc1 [Compound 5461, ((S)-1-(4-fluorophenyl)-3,4-dihydroisoquinolin-2(1H)-yl)((4aR,7R,8aS)-octahydro-2H-pyrano[3,4-b]pyrazin-7-yl)methanone] | 0.01 µM |
| CN1CCN[C@H]2C[C@H](C(=O)N3CCc4ccccc4[C@@H]3c3ccc(F)cc3)OC[C@@H]21 [Compound 5462, ((S)-1-(4-fluorophenyl)-3,4-dihydroisoquinolin-2(1H)-yl)((4aR,7R,8aS)-4-methyloctahydro-2H-pyrano[3,4-b]pyrazin-7-yl)methanone] | 0.003 µM |
| C[C@H]1CN[C@H]2C[C@H](C(=O)N3CCc4ccccc4[C@@H]3c3ccc(F)cc3)OC[C@@H]2O1 [Compound 5471, ((S)-1-(4-fluorophenyl)-3,4-dihydroisoquinolin-2(1H)-yl)((3S,4aR,7R,8aS)-3-methyloctahydropyrano[3,4-b][1,4]oxazin-7-yl)methanone] | 0.109 µM |
| C[C@@H]1CN[C@H]2C[C@H](C(=O)N3CCc4ccccc4[C@@H]3c3ccc(F)cc3)OC[C@@H]2O1 [Compound 5472, ((S)-1-(4-fluorophenyl)-3,4-dihydroisoquinolin-2(1H)-yl)((3R,4aR,7R,8aS)-3-methyloctahydropyrano[3,4-b][1,4]oxazin-7-yl)methanone] | 0.013 µM |
| O=C([C@H]1C[C@@H]2NC[C@@H](C(F)(F)F)O[C@H]2CO1)N1CCc2ccccc2[C@@H]1c1ccc(F)cc1 [Compound 5473, ((S)-1-(4-fluorophenyl)-3,4-dihydroisoquinolin-2(1H)-yl)((3S,4aR,7R,8aS)-3-(trifluoromethyl)octahydropyrano[3,4-b][1,4]oxazin-7-yl)methanone] | 0.621 µM |
| O=C([C@H]1C[C@@H]2NC[C@H](C(F)(F)F)O[C@H]2CO1)N1CCc2ccccc2[C@@H]1c1ccc(F)cc1 [Compound 5474, ((S)-1-(4-fluorophenyl)-3,4-dihydroisoquinolin-2(1H)-yl)((3R,4aR,7R,8aS)-3-(trifluoromethyl)octahydropyrano[3,4-b][1,4]oxazin-7-yl)methanone] | 1.51 µM |
| N[C@H]1C[C@H](C(=O)N2CCc3ccccc3[C@@H]2c2ccc(F)cc2)OC[C@@H]1OCC(F)(F)F [Compound 5475, ((2R,4S,5R)-4-amino-5-(2,2,2-trifluoroethoxy)tetrahydro-2H-pyran-2-yl)((S)-1-(4-fluorophenyl)-3,4-dihydroisoquinolin-2(1H)-yl)methanone] | 0.001 µM |
| N[C@H]1CCO[C@@H](C(=O)N2CCc3ccccc3[C@@H]2c2ccc(F)cc2F)C1 [Compound 5500] | 0.19 µM |
| O=C([C@H]1OCCN[C@@H]1CF)N1CCc2ccccc2[C@@H]1c1ccc(F)cc1 [Compound 5501] | 3.86 µM |
| CCCO[C@H]1CO[C@@H](C(=O)N2CCc3ccccc3[C@@H]2c2ccc(F)cc2)C[C@@H]1N [Compound 5502, ((2R,4S,5R)-4-amino-5-propoxytetrahydro-2H-pyran-2-yl)((S)-1-(4-fluorophenyl)-3,4-dihydroisoquinolin-2(1H)-yl)methanone] | 0.001 µM |
| CN[C@H]1C[C@H](C(=O)N2CCc3ccccc3[C@@H]2c2ccc(F)cc2)OC[C@@H]1OC [Compound 5503, ((S)-1-(4-fluorophenyl)-3,4-dihydroisoquinolin-2(1H)-yl)((2R,4S,5R)-5-methoxy-4-(methylamino)tetrahydro-2H-pyran-2-yl)methanone] | 0.005 µM |
| CCN[C@H]1C[C@H](C(=O)N2CCc3ccccc3[C@@H]2c2ccc(F)cc2)OC[C@@H]1OC [Compound 5504, ((2R,4S,5R)-4-(ethylamino)-5-methoxytetrahydro-2H-pyran-2-yl)((S)-1-(4-fluorophenyl)-3,4-dihydroisoquinolin-2(1H)-yl)methanone] | 0.009 µM |
| C[C@@]1(C(=O)N2CCc3ccccc3[C@@H]2c2ccc(F)cc2)OCCNC[C@H]1O [Compound 5505] | 0.41 µM |
| C[C@]1(C(=O)N2CCc3ccccc3[C@@H]2c2ccc(F)cc2)OCCNC[C@@H]1O [Compound 5506] | 0.398 µM |
| CC(C)(C)O[C@H]1CO[C@@H](C(=O)N2CCc3ccccc3[C@@H]2c2ccc(F)cc2)C[C@@H]1N [Compound 5511, ((2R,4S,5R)-4-amino-5-(tert-butoxy)tetrahydro-2H-pyran-2-yl)((S)-1-(4-fluorophenyl)-3,4-dihydroisoquinolin-2(1H)-yl)methanone] | 0.0002 µM |

More lines, now with the values ahead:

| EC50 | Compound |
| --- | --- |
| 0.001 µM | N[C@H]1C[C@H](C(=O)N2CCc3ccccc3[C@@H]2c2ccc(F)cc2)OC[C@@H]1OC(F)(F)F [Compound 5507, ((2R,4S,5R)-4-amino-5-(trifluoromethoxy)tetrahydro-2H-pyran-2-yl)((S)-1-(4-fluorophenyl)-3,4-dihydroisoquinolin-2(1H)-yl)methanone] |
| 0.03 µM | CCN[C@H]1C[C@H](C(=O)N2CCc3ccccc3[C@@H]2c2ccc(F)cc2)OC[C@H]1O [Compound 5508, ((2R,4S,5S)-4-(ethylamino)-5-hydroxytetrahydro-2H-pyran-2-yl)((S)-1-(4-fluorophenyl)-3,4-dihydroisoquinolin-2(1H)-yl)methanone] |
| 0.001 µM | CCO[C@H]1CO[C@@H](C(=O)N2CCc3ccccc3[C@@H]2c2ccc(F)cc2)C[C@@H]1NC [Compound 5509, ((2R,4S,5R)-5-ethoxy-4-(methylamino)tetrahydro-2H-pyran-2-yl)((S)-1-(4-fluorophenyl)-3,4-dihydroisoquinolin-2(1H)-yl)methanone] |
| 0.002 µM | CCN[C@H]1C[C@H](C(=O)N2CCc3ccccc3[C@@H]2c2ccc(F)cc2)OC[C@@H]1OCC [Compound 5510, ((2R,4S,5R)-5-ethoxy-4-(ethylamino)tetrahydro-2H-pyran-2-yl)((S)-1-(4-fluorophenyl)-3,4-dihydroisoquinolin-2(1H)-yl)methanone] |
| 0.03 µM | CCC(=O)N[C@H]1CO[C@@H](C(=O)N2CCc3ccccc3[C@@H]2c2ccc(F)cc2)C[C@@H]1N [Compound 5513, N-((3R,4S,6R)-4-amino-6-((S)-1-(4-fluorophenyl)-1,2,3,4-tetrahydroisoquinoline-2-carbonyl)tetrahydro-2H-pyran-3-yl)propionamide] |
| 0.024 µM | N[C@H]1C[C@H](C(=O)N2CCc3ccccc3[C@@H]2c2ccc(F)cc2)OC[C@@H]1NC(=O)C(F)(F)F [Compound 5514, N-((3R,4S,6R)-4-amino-6-((S)-1-(4-fluorophenyl)-1,2,3,4-tetrahydroisoquinoline-2-carbonyl)tetrahydro-2H-pyran-3-yl)-2,2,2-trifluoroacetamide] |
| 0.007 µM | CC(=O)N(C)[C@H]1CO[C@@H](C(=O)N2CCc3ccccc3[C@@H]2c2ccc(F)cc2)C[C@@H]1N [Compound 5516, N-((3R,4S,6R)-4-amino-6-((S)-1-(4-fluorophenyl)-1,2,3,4-tetrahydroisoquinoline-2-carbonyl)tetrahydro-2H-pyran-3-yl)-N-methylacetamide] |
| 0.012 µM | CCC(=O)N(C)[C@H]1CO[C@@H](C(=O)N2CCc3ccccc3[C@@H]2c2ccc(F)cc2)C[C@@H]1N [Compound 5517, N-((3R,4S,6R)-4-amino-6-((S)-1-(4-fluorophenyl)-1,2,3,4-tetrahydroisoquinoline-2-carbonyl)tetrahydro-2H-pyran-3-yl)-N-methylpropionamide] |
| 0.015 µM | C[C@H]1CO[C@@H](C(=O)N2CCc3ccccc3[C@@H]2c2ccc(F)cc2)C[C@@H]1N [Compound 5518, ((2R,4S,5R)-4-amino-5-methyltetrahydro-2H-pyran-2-yl)((S)-1-(4-fluorophenyl)-3,4-dihydroisoquinolin-2(1H)-yl)methanone] |
| 0.041 µM | C[C@@H]1CO[C@@H](C(=O)N2CCc3ccccc3[C@@H]2c2ccc(F)cc2)C[C@@H]1N [Compound 5519, ((2R,4S,5S)-4-amino-5-methyltetrahydro-2H-pyran-2-yl)((S)-1-(4-fluorophenyl)-3,4-dihydroisoquinolin-2(1H)-yl)methanone] |
| 0.004 µM | CS[C@H]1CO[C@@H](C(=O)N2CCc3ccccc3[C@@H]2c2ccc(F)cc2)C[C@@H]1N [Compound 5520, ((2R,4S,5R)-4-amino-5-(methylthio)tetrahydro-2H-pyran-2-yl)((S)-1-(4-fluorophenyl)-3,4-dihydroisoquinolin-2(1H)-yl)methanone] |
| 0.008 µM | CCS[C@H]1CO[C@@H](C(=O)N2CCc3ccccc3[C@@H]2c2ccc(F)cc2)C[C@@H]1N [Compound 5521, ((2R,4S,5R)-4-amino-5-(ethylthio)tetrahydro-2H-pyran-2-yl)((S)-1-(4-fluorophenyl)-3,4-dihydroisoquinolin-2(1H)-yl)methanone] |
